{"source": "patent US20260053777A1", "about": "“USE OF NRF2 ACTIVATORS FOR THE TREATMENT OF CEREBRAL SMALL VESSEL DISEASE” (INSTITUT NATIONAL DE LA SANTÉ ET DE LA RECHERCHE MÉDICALE, priority 2022, published 2026)", "key": {"[1]": {"test_system": "Nrf2 and its target genes", "experiment": "qPCR screening of Nrf2 and its target genes on brain endothelial cells isolated from adult mice with/without tBHQ diet", "type": "in vivo"}, "[2]": {"test_system": "Human brain microvascular endothelial cells (HBMEC)", "experiment": "Cellrox Green detection of oxidative stress in HBMEC treated with control or TRIM47 siRNA and Luperox", "type": "cell-based", "conditions": "Luperox, pre-treatment with tBHQ", "procedure": "Human brain microvascular endothelial cells (HBMEC) were treated with control or TRIM47 siRNA and with/without Luperox (inducer of oxidative stress) and incubated with Cellrox Green dye (detection of oxidative stress)."}, "Trim47 −/− adult mice": {"test_system": "Trim47 −/− adult mice", "experiment": "Water maze behavioural test on adult mice with/without a diet with tBHQ", "type": "in vivo", "procedure": "FIG. 4. TRIM47 is essential to brain physiology by promoting the NRF2 antioxidant protective system. […] B. RNA-sequencing was performed on HBMEC treated with control or TRIM47 siRNA. C. Assessment of blood brain barrier (BBB) permeability was done on Trim47 +/+ and Trim47 −/− adult mice. Mann-Whitney test. D. Representative image by immunofluorescence of GFAP expression (activated astrocytes) in brain sections from Trim47 +/+ and Trim47 −/− adult mice. E. Water maze behavioural test performed on adult mice with/without a diet with tBHQ. Two-way ANOVA with repeated measures. […] Latency to reach platform is shown for the 4 training days (FIG. 4E)."}, "NRF2": {"test_system": "NRF2", "experiment": "Rescue of the effect of TRIM47 knockdown by activation of NRF2 at the protein level (FIG. 3)", "type": "cell-based, human", "conditions": "tBHQ stabilizing NRF2 protein", "source_text": "FIG. 3. […] Methods. TRIM47 interacting effectors were searched by proximity labeling assay (BioID) in human brain EC. TRIM47 knockdown in EC allowed to explore TRIM47 role in functional assays, and to identify transcriptional response by RNA-sequencing."}, "[3]": {"conditions": "Trim47 KO mice, brain EC, +tBHQ diet (1% W/W, 1 month), mean of n = 5"}, "[4]": {"conditions": "Trim47 WT mice, brain EC, +tBHQ diet (1% W/W, 1 month), mean of n = 5"}}}
{"smiles": "CC(C)(C)c1cc(O)ccc1O", "note": "[tBHQ, tert-butylhydroquinone]", "values": [{"measurement": "Relative gene expression fold change (normalized to Pecam1): Cdh5 (BBB integrity)", "setting": "[1]; [3]", "value": 0.967}, {"measurement": "Relative gene expression fold change (normalized to Pecam1): Cldn5 (BBB integrity)", "setting": "[1]; [3]", "value": 0.877}, {"measurement": "Relative gene expression fold change (normalized to Pecam1): Cldn11 (BBB integrity)", "setting": "[1]; [3]", "value": 1.020}, {"measurement": "Relative gene expression fold change (normalized to Pecam1): Gclm (Nrf2 pathway)", "setting": "[1]; [3]", "value": 1.009}, {"measurement": "Relative gene expression fold change (normalized to Pecam1): Hmox1 (Nrf2 pathway)", "setting": "[1]; [3]", "value": 1.095}, {"measurement": "Relative gene expression fold change (normalized to Pecam1): Keap1 (Nrf2 pathway)", "setting": "[1]; [3]", "value": 0.730}, {"measurement": "Relative gene expression fold change (normalized to Pecam1): Me1 (Nrf2 pathway)", "setting": "[1]; [3]", "value": 1.148}, {"measurement": "Relative gene expression fold change (normalized to Pecam1): Nfe2l2 (Nrf2 pathway)", "setting": "[1]; [3]", "value": 1.040}, {"measurement": "Relative gene expression fold change (normalized to Pecam1): Nqo1 (Nrf2 pathway)", "setting": "[1]; [3]", "value": 1.084}, {"measurement": "Relative gene expression fold change (normalized to Pecam1): Ocln (BBB integrity)", "setting": "[1]; [3]", "value": 0.895}, {"measurement": "Relative gene expression fold change (normalized to Pecam1): Slc7a11 (Nrf2 pathway)", "setting": "[1]; [3]", "value": 1.145}, {"measurement": "Relative gene expression fold change (normalized to Pecam1): Cdh5 (BBB integrity)", "setting": "[1]; [4]", "value": 1.013}, {"measurement": "Relative gene expression fold change (normalized to Pecam1): Cldn5 (BBB integrity)", "setting": "[1]; [4]", "value": 1.071}, {"measurement": "Relative gene expression fold change (normalized to Pecam1): Cldn11 (BBB integrity)", "setting": "[1]; [4]", "value": 1.016}, {"measurement": "Relative gene expression fold change (normalized to Pecam1): Gclm (Nrf2 pathway)", "setting": "[1]; [4]", "value": 0.999}, {"measurement": "Relative gene expression fold change (normalized to Pecam1): Hmox1 (Nrf2 pathway)", "setting": "[1]; [4]", "value": 1.033}, {"measurement": "Relative gene expression fold change (normalized to Pecam1): Keap1 (Nrf2 pathway)", "setting": "[1]; [4]", "value": 1.014}, {"measurement": "Relative gene expression fold change (normalized to Pecam1): Me1 (Nrf2 pathway)", "setting": "[1]; [4]", "value": 1.033}, {"measurement": "Relative gene expression fold change (normalized to Pecam1): Nfe2l2 (Nrf2 pathway)", "setting": "[1]; [4]", "value": 1.007}, {"measurement": "Relative gene expression fold change (normalized to Pecam1): Nqo1 (Nrf2 pathway)", "setting": "[1]; [4]", "value": 1.033}, {"measurement": "Relative gene expression fold change (normalized to Pecam1): Ocln (BBB integrity)", "setting": "[1]; [4]", "value": 1.025}, {"measurement": "Relative gene expression fold change (normalized to Pecam1): Slc7a11 (Nrf2 pathway)", "setting": "[1]; [4]", "value": 1.030}, {"measurement": "Relative gene expression fold change (normalized to Pecam1): Trim47", "setting": "[1]; [4]", "value": 1.066}, {"measurement": "Impairment of the Nrf2 pathway in Trim47 −/− mice (qPCR, brain endothelial cells)", "setting": "[1]; Trim47 −/− adult mice, 1-month diet with tBHQ (1% W/W)", "value": "prevented"}, {"measurement": "Induction of oxidative stress (Cellrox Green dye)", "setting": "[2]", "value": "reversed induction of oxidative stress"}, {"measurement": "Cognitive impairment in water maze (latency to reach platform, 4 training days)", "setting": "Trim47 −/− adult mice", "value": "prevent cognitive impairment"}, {"measurement": "Effect of TRIM47 knockdown (FIG. 3)", "setting": "NRF2", "value": "partly rescues the effect of TRIM47 knockdown"}]}
